Experimental data reported in patent US20120101100A1 (priority 2008, published 2012).
Where two headings read alike, the source gives them in different places.

Target: S. aureus GyrB ATPase (Staphylococcus aureus, UniProt P0A0K8)
Experiment: S. aureus (SAU) GyrB ATPase inhibition, malachite green phosphate detection (E. coli GyrA + S. aureus GyrB)
Assay type: biochemical
Settings: read-out: S. aureus (SAU) GyrB ATPase % Inhibition
Method: Compounds were tested for inhibition of GyrB ATPase activity using an ammonium molybdate/malachite green-based phosphate detection assay (Lanzetta, P. A., L. J. Alvarez, P. S. Reinach, and O. A. Candia, 1979, 100: 95-97). Assays were performed in multiwell plates in 100 μl reactions containing: 50 mM Hepes buffer pH 7.5, 75 mM ammonium acetate, 8.0 mM magnesium chloride, 1.0 mM ethylenediaminetetraacetic acid, 5% glycerol, 2 mM 1,4-Dithio-DL-threitol, 400 nM bovine serum albumin, 5 μg/ml sheared salmon sperm DNA, 1.25 nM E. coli GyrA, 1.25 nM S. aureus GyrB, 500 μM ATP, and compound in dimethylsulfoxide. Reactions were quenched with 150 μl of ammonium molybdate/malachite green detection reagent containing 1.2 mM malachite green hydrochloride, 8.5 mM ammonium molybdate tetrahydrate, and 1 M hydrochloric acid. Plates were read in an absorbance plate reader at 650 nm and percent inhibition values were calculated using dimethylsulfoxide (2%)-containing reactions as 0% inhibition and novobiocin-containing (2 μM) reactions as 100% inhibition controls. Compound potency was based on IC50 measurements determined from reactions performed in the presence of 10 different compound concentrations.

[1] = compound concentration of 1.0 μM unless otherwise noted, average value where assay was carried out more than once

S. aureus GyrB ATPase, sequence (P0A0K8 whole entry): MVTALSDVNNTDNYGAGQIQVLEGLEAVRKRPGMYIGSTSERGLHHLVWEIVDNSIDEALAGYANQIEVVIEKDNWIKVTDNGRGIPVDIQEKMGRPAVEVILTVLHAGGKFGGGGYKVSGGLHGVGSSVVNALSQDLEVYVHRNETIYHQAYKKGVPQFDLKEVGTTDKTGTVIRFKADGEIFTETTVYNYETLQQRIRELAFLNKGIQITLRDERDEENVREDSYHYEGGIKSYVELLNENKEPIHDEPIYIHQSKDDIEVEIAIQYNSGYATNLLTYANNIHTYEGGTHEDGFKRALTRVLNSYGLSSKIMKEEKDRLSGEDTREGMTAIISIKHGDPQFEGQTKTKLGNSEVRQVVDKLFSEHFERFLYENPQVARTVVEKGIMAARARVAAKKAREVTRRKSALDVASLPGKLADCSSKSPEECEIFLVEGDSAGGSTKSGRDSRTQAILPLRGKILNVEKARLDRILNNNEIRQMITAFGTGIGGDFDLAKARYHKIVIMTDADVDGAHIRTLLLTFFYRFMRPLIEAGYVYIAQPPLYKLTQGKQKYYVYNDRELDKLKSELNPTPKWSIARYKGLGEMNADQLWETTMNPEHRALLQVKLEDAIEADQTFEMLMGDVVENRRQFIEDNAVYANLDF
S. aureus GyrB ATPase, sequence (P0AES4 whole entry, further chain): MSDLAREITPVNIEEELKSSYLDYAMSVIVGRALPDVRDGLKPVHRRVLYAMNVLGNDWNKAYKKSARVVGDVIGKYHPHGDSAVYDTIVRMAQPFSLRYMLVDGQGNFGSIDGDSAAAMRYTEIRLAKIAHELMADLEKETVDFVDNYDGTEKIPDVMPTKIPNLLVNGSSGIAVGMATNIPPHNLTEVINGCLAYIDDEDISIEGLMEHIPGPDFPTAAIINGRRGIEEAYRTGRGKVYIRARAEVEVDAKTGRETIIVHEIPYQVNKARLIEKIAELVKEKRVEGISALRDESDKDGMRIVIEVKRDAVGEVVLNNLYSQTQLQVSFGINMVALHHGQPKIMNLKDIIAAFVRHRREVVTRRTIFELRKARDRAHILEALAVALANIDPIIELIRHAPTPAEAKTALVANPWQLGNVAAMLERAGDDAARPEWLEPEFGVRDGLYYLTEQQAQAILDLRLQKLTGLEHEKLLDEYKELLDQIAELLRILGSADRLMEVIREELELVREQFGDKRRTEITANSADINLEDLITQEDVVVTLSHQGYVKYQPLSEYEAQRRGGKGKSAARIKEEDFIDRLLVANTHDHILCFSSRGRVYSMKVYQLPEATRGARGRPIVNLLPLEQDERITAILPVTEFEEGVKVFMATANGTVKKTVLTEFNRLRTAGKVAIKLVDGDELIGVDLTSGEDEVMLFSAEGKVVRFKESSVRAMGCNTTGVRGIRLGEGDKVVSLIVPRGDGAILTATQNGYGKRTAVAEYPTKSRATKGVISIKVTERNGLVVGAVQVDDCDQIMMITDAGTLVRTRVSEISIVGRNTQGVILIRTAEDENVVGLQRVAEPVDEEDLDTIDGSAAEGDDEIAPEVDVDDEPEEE

CCNC(=O)Nc1cc(-c2nc(-c3ccccc3)cs2)c(-c2cc(OC(C)C)nc(-c3n[nH]c(=O)o3)c2)cn1 [Example 81, 1-ethyl-3-(2′-isopropoxy-6′-(5-oxo-4,5-dihydro-1,3,4-oxadiazol-2-yl)-4-(4-phenylthiazol-2-yl)-3,4′-bipyridin-6-yl)urea] was tested. Which inhibition at 1 µM [1] did it give?
Its inhibition at 1 µM is 94%.

How did the inhibition at 1 µM [1] turn out when CCNC(=O)Nc1cc(-c2nc(C(F)(F)F)cs2)c(-c2cncc(-c3nnc(C(F)F)[nH]3)c2)cn1 [Example 256, 1-(5′-(5-(difluoromethyl)-4H-1,2,4-triazol-3-yl)-4-(4-(trifluoromethyl)thiazol-2-yl)-3,3′-bipyridin-6-yl)-3-ethylurea] was run?
The inhibition at 1 µM was 103%.

How did the inhibition at 1 µM [1] turn out when CCNC(=O)Nc1cc(-c2nc(-c3ccccc3)cs2)c(-c2ccc[n+]([O-])c2)cn1 [Example 130] was run?
Its inhibition at 1 µM is 103%.

CCNC(=O)Nc1cc(-c2nc(C(F)(F)F)cs2)c(-c2cncc(-c3nnn[nH]3)c2)cn1 [Example 3, 1-(5′-(2H-tetrazol-5-yl)-4-(4-(trifluoromethyl)thiazol-2-yl)-3,3′-bipyridin-6-yl)-3-ethylurea] was tested. Which inhibition at 1 µM [1] did it give?
Its inhibition at 1 µM is 88%.

For CCNC(=O)Nc1cc(-c2nc(-c3cccnc3F)cs2)c(-c2cncc(-c3n[nH]c(=O)o3)c2)cn1 [Example 204], which inhibition at 1 µM [1] is on record?
The inhibition at 1 µM was 101%.

For CCNC(=O)Nc1cc(-c2ccnn2C)c(-c2cncc(-c3n[nH]c(=O)o3)c2)cn1 [Example 28, 1-ethyl-3-(4-(1-methyl-1H-pyrazol-5-yl)-5′-(5-oxo-4,5-dihydro-1,3,4-oxadiazol-2-yl)-3,3′-bipyridin-6-yl)urea], which inhibition at 1 µM [1] is on record?
Its inhibition at 1 µM is 70%.

With CCNC(=O)Nc1cc(-c2nc(C(F)(F)F)cs2)c(-c2cncc(-c3nnc(C(F)(F)F)[nH]3)c2)cn1 [Example 257, 1-ethyl-3-(5′-(5-(trifluoromethyl)-4H-1,2,4-triazol-3-yl)-4-(4-(trifluoromethyl)thiazol-2-yl)-3,3′-bipyridin-6-yl)urea] as the molecule, how does the inhibition at 1 µM [1] read?
The inhibition at 1 µM was 102%.

For CCNC(=O)Nc1cc(-c2nc(-c3cnn(C)c3)cs2)c(-c2cc(-c3n[nH]c(=O)o3)cnc2OC2CCOCC2)cn1 [Example 222], which inhibition at 1 µM [1] is on record?
The inhibition at 1 µM was 97%.

For CCNC(=O)Nc1cc(-c2nc(-c3ccccc3)cs2)c(-c2cc(OCC)nc(-c3n[nH]c(=O)o3)c2)cn1 [Example 77, 1-(2′-ethoxy-6′-(5-oxo-4,5-dihydro-1,3,4-oxadiazol-2-yl)-4-(4-phenylthiazol-2-yl)-3,4′-bipyridin-6-yl)-3-ethylurea], which inhibition at 1 µM [1] is on record?
The inhibition at 1 µM was 97%.

For CCNC(=O)Nc1cc(-c2nc(-c3cnn(C)c3)cs2)c(-c2cc(-c3nnc(C)o3)cnc2OC2CCOCC2)cn1 [Example 231, 1-ethyl-3-(5′-(5-methyl-1,3,4-oxadiazol-2-yl)-4-(4-(1-methyl-1H-pyrazol-4-yl)thiazol-2-yl)-2′-(tetrahydro-2H-pyran-4-yloxy)-3,3′-bipyridin-6-yl)urea], which inhibition at 1 µM [1] is on record?
The inhibition at 1 µM was 96%.

For CCNC(=O)Nc1cc(-c2nc(C(F)(F)F)cs2)c(-c2cnc(OCCOC)c(-c3n[nH]c(=O)o3)c2)cn1 [Example 254], which inhibition at 1 µM [1] is on record?
Its inhibition at 1 µM is 97%.

CCNC(=O)Nc1cc(-c2nc(C(F)(F)F)cs2)c(-c2cncc(-c3nnc(NCCCN(C)C)o3)c2)cn1 [Example 152, 1-(5′-(5-(3-(Dimethylamino)propylamino)-1,3,4-oxadiazol-2-yl)-4-(4-(trifluoromethyl)thiazol-2-yl)-3,3′-bipyridin-6-yl)-3-ethylurea] was tested. Which inhibition at 1 µM [1] did it give?
Its inhibition at 1 µM is 95%.

How did the inhibition at 1 µM [1] turn out when CCNC(=O)Nc1cc(-c2nc(C(F)(F)F)cs2)c(-c2nc3c(=O)[nH][nH]c(=O)c3s2)cn1 [Example 16, 1-{5-(4,7-dioxo-4,5,6,7-tetrahydro[1,3]thiazolo[4,5-d]pyridazin-2-yl)-4-[4-(trifluoromethyl)-1,3-thiazol-2-yl]pyridin-2-yl}-3-ethylurea] was run?
The inhibition at 1 µM was 115%.

Which inhibition at 1 µM [1] does the source give for CCNC(=O)Nc1cc(-c2nc(C(F)(F)F)cs2)c(-c2ccc[n+]([O-])c2)cn1 [Example 15, 6′-(3-Ethylureido)-4′-(4-(trifluoromethyl)thiazol-2-yl)-3,3′-bipyridine 1-oxide] here?
Its inhibition at 1 µM is 93%.

How did the inhibition at 1 µM [1] turn out when CCNC(=O)Nc1cc(-c2nc(-c3cnn(C)c3)cs2)c(-c2cncc(-c3nnc(C)o3)c2)cn1 [Example 233, 1-ethyl-3-(5′-(5-methyl-1,3,4-oxadiazol-2-yl)-4-(4-(1-methyl-1H-pyrazol-4-yl)thiazol-2-yl)-3,3′-bipyridin-6-yl)urea] was run?
The inhibition at 1 µM was 100%.

How did the inhibition at 1 µM [1] turn out when CCNC(=O)Nc1cc(-c2nc(C(F)(F)F)cs2)c(-c2cnc(C#N)nc2)cn1 [Example 126] was run?
The inhibition at 1 µM was 102%.

Which inhibition at 1 µM [1] does the source give for CCNC(=O)Nc1cc(-c2nc(C(F)(F)F)cs2)c(-c2ccnc(-c3nnc([C@@H](N)C4CCCCC4)o3)c2)cn1 [Example 241, (S)-1-(2′-(5-(amino(cyclohexyl)methyl)-1,3,4-oxadiazol-2-yl)-4-(4-(trifluoromethyl)thiazol-2-yl)-3,4′-bipyridin-6-yl)-3-ethylurea] here?
Its inhibition at 1 µM is 97%.

How did the inhibition at 1 µM [1] turn out when CCNC(=O)Nc1cc(-c2nc(C(F)(F)F)cs2)c(-c2cncc(C#N)n2)cn1 [Example 31, 1-(5-(6-cyanopyrazin-2-yl)-4-(4-(trifluoromethyl)thiazol-2-yl)pyridin-2-yl)-3-ethylurea] was run?
The inhibition at 1 µM was 113%.

Which inhibition at 1 µM [1] does the source give for CCNC(=O)Nc1cc(-c2nc(C(F)(F)F)cs2)c(-c2nc(-c3ncnn3C)c(-c3n[nH]c(=O)o3)s2)cn1 [Example 37, 1-ethyl-3-(5-(4-(1-mcthyl-1H-1,2,4-triazol-5-yl)-5-(5-oxo-4,5-dihydro-1,3,4-oxadiazol-2-yl)thiazol-2-yl)-4-(4-(trifluoromethyl)thiazol-2-yl)pyridin-2-yl)urea] here?
The inhibition at 1 µM was 112%.

With CCNC(=O)Nc1cc(-c2nc(C(F)(F)F)cs2)c(-c2cncc(C3=NOS(=O)N3)c2)cn1 (centres unmarked) [Example 20] as the molecule, how does the inhibition at 1 µM [1] read?
Its inhibition at 1 µM is 111%.

CCNC(=O)Nc1cc(-c2nc(C(F)(F)F)cs2)c(-c2cncc(-c3nnc([C@@H]4COCCN4)o3)c2)cn1 [Example 239, (S)-1-ethyl-3-(5′-(5-(morpholin-3-yl)-1,3,4-oxadiazol-2-yl)-4-(4-(trifluoromethyl)thiazol-2-yl)-3,3′-bipyridin-6-yl)urea] was tested. Which inhibition at 1 µM [1] did it give?
The inhibition at 1 µM was 94%.

Which inhibition at 1 µM [1] does the source give for CCNC(=O)Nc1cc(-c2nc(C(F)(F)F)cs2)c(-c2cc(-c3nnc(C)o3)c[n+]([O-])c2)cn1 [Example 255, 6′-(3-ethylureido)-5-(5-methyl-1,3,4-oxadiazol-2-yl)-4′-(4-(trifluoromethyl)thiazol-2-yl)-3,3′-bipyridine 1-oxide] here?
Its inhibition at 1 µM is 98%.

For CCNC(=O)Nc1cc(-c2nnc(-c3ccccc3)o2)c(-c2cnc(-c3n[nH]c(=O)o3)cn2)cn1 [Example 195], which inhibition at 1 µM [1] is on record?
Its inhibition at 1 µM is 98%.

Which inhibition at 1 µM does the source give for CCNC(=O)Nc1cc(-c2nc(C(F)(F)F)cs2)c(-c2cc(-c3n[nH]c(=O)o3)c[n+]([O-])c2)cn1 [Example 139] here?
The inhibition at 1 µM was 103%.

For CCNC(=O)Nc1cc(-c2nc(C(F)(F)F)cs2)c(-c2cncc(-c3nnc(N4CCN(C(C)=O)CC4)o3)c2)cn1 [Example 156], which inhibition at 1 µM [1] is on record?
The inhibition at 1 µM was 95%.

CCNC(=O)Nc1cc(-c2nc(C(F)(F)F)cs2)c(-c2cncc(-c3nnc(N4CC[C@H](O)C4)o3)c2)cn1 [Example 179] was tested. Which inhibition at 1 µM [1] did it give?
Its inhibition at 1 µM is 101%.

With CCNC(=O)Nc1cc(-c2nc(C(F)(F)F)cs2)c(-c2cc(OCC)nc(-c3nnc(C)o3)c2)cn1 [Example 76, 1-(2′-ethoxy-6′-(5-methyl-1,3,4-oxadiazol-2-yl)-4-(4-(trifluoromethyl)thiazol-2-yl)-3,4′-bipyridin-6-yl)-3-ethylurea] as the molecule, how does the inhibition at 1 µM [1] read?
Its inhibition at 1 µM is 100%.

For CCNC(=O)Nc1cc(-c2nc(-c3cccc(OC)n3)cs2)c(-c2nc(-c3ncnn3C)c(-c3nnc(C)o3)s2)cn1 [Example 252, 1-ethyl-3-(4-(4-(6-methoxypyridin-2-yl)thiazol-2-yl)-5-(5-(5-methyl-1,3,4-oxadiazol-2-yl)-4-(1-methyl-1H-1,2,4-triazol-5-yl)thiazol-2-yl)pyridin-2-yl)urea], which inhibition at 1 µM [1] is on record?
The inhibition at 1 µM was 99%.

Which inhibition at 1 µM [1] does the source give for CCNC(=O)Nc1cc(-c2cnn(CC(C)C)c2)c(-c2cncc(-c3n[nH]c(=O)o3)c2)cn1 [Example 107, 1-Ethyl-3-(4-(1-isobutl-1H-pyrazol-4-yl)-5′-(5-oxo-4,5-dihydro-1,3,4-oxadiazol-2-yl)-3,3′-bipyridin-6-yl)urea] here?
The inhibition at 1 µM was 97%.

With CCNC(=O)Nc1cc(-c2cn(Cc3ccccc3)nn2)c(-c2cc(-c3n[nH]c(=O)o3)ccn2)cn1 [Example 288] as the molecule, how does the inhibition at 1 µM [1] read?
The inhibition at 1 µM was 91%.

CCNC(=O)Nc1cc(-c2nc(C(F)(F)F)cs2)c(-c2cncc(-c3nnc(COCCOC)o3)c2)cn1 [Example 278, 1-ethyl-3-(5′-(5-((2-methoxyethoxy)methyl)-1,3,4-oxadiazol-2-yl)-4-(4-(trifluoromethyl)thiazol-2-yl)-3,3′-bipyridin-6-yl)urea] was tested. Which inhibition at 1 µM [1] did it give?
The inhibition at 1 µM was 68%.

CCCNC(=O)Nc1cc(-c2nc(C(F)(F)F)cs2)c(-c2cc(-c3nnc(C)o3)cnc2OC2CCOCC2)cn1 [Example 169, 1-(5′-(5-Methyl-1,3,4-oxadiazol-2-yl)-2′-(tetrahydro-2H-pyran-4-yloxy)-4-(4-(trifluoromethyl)thiazol-2-yl)-3,3′-bipyridin-6-yl)-3-propylurea] was tested. Which inhibition at 1 µM [1] did it give?
Its inhibition at 1 µM is 96%.

For CCNC(=O)Nc1cc(-c2nc(C(F)(F)F)cs2)c(-c2cnc(OC)c(-c3n[nH]c(=O)o3)c2)cn1 [Example 189], which inhibition at 1 µM [1] is on record?
Its inhibition at 1 µM is 103%.

For CCNC(=O)Nc1cc(-c2nc(C(F)(F)F)cs2)c(-c2cc(-c3n[nH]c(=O)o3)cnc2OCC2CCN(C)CC2)cn1 [Example 223], which inhibition at 1 µM [1] is on record?
Its inhibition at 1 µM is 95%.

For CCNC(=O)Nc1cc(-c2nc(C(F)(F)F)cs2)c(-c2cc(-c3n[nH]c(=O)o3)cnc2OC[C@H](C)O)cn1 [Example 226], which inhibition at 1 µM [1] is on record?
The inhibition at 1 µM was 109%.
